Experiments:
[1] = molecular target: T1, Amine oxidase [flavin-containing] A (Rattus norvegicus, UniProt P21396); test: In vitro inhibitory activity against rat brain Monoamine oxidase A
T1 sequence (P21396 whole entry): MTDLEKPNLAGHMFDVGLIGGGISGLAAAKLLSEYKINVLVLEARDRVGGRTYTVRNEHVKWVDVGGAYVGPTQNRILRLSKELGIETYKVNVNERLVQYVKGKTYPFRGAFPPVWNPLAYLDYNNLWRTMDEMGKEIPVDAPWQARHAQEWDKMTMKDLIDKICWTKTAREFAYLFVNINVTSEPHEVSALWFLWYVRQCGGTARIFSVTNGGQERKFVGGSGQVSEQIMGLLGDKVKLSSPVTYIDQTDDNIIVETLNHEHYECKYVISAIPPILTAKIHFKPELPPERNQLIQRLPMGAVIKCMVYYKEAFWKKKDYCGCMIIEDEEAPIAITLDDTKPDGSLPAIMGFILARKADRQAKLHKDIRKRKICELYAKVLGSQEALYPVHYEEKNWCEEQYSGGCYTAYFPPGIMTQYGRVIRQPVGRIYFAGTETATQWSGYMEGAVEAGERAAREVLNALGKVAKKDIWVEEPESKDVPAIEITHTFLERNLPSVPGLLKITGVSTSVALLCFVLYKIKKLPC

[2] = molecular target: T2, Amine oxidase [flavin-containing] B (Rattus norvegicus, UniProt P19643); test: In vitro inhibitory activity against rat brain Monoamine oxidase B
T2 sequence (P19643 whole entry): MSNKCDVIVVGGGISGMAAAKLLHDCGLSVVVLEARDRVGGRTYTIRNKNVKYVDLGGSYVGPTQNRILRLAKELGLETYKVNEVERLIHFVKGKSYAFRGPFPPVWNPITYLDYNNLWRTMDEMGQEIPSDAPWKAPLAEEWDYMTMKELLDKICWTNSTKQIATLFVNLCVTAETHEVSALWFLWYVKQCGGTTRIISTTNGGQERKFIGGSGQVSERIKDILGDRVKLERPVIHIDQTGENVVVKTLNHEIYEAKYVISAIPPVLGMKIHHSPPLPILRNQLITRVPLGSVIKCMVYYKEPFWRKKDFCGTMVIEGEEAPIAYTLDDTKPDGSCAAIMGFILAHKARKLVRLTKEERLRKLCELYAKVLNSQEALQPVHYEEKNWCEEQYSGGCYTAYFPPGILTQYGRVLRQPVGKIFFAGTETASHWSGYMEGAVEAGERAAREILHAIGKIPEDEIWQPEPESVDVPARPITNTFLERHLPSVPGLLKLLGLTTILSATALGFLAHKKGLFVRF

[3] = molecular target: T2, Amine oxidase [flavin-containing] B; test: Ex vivo inhibitory activity against rat brain monoamine oxidase (MAO) type B at a dose of 5 mg/kg administered orally at 24 hr; type: functional, organism-based; set-up: dose 5 mg/kg, route oral; conditions: po
[4] = molecular target: T1, Amine oxidase [flavin-containing] A; test: Ex vivo inhibitory activity against rat brain monoamine oxidase (MAO) type A at a dose of 5 mg/kg administered orally at 4 hr; type: functional, organism-based; set-up: dose 5 mg/kg, route oral; conditions: po
[5] = molecular target: T2, Amine oxidase [flavin-containing] B; test: Inhibitory activity against monoamine oxidase (MAO) type B by reversibility test after dialysis at a concentration of 0.001 uM; conditions: read-out: Control
[6] = molecular target: T2, Amine oxidase [flavin-containing] B; test: Ex vivo inhibitory activity against rat brain monoamine oxidase (MAO) type B at a dose of 5 mg/kg administered orally at 4 hr; type: functional, organism-based; set-up: dose 5 mg/kg, route oral; conditions: po
[7] = molecular target: T1, Amine oxidase [flavin-containing] A; test: Ex vivo inhibitory activity against rat brain monoamine oxidase (MAO) type A at a dose of 5 mg/kg administered orally at 0.5 hr; type: functional, organism-based; set-up: dose 5 mg/kg, route oral; conditions: po
[8] = molecular target: T2, Amine oxidase [flavin-containing] B; test: (§1) Ex vivo inhibitory activity against rat brain monoamine oxidase (MAO) type B at a dose of 5 mg/kg administered orally at 1 hr; type: functional, organism-based; set-up: dose 5 mg/kg, route oral; conditions: po
[9] = molecular target: T2, Amine oxidase [flavin-containing] B; test: Inhibitory activity against monoamine oxidase (MAO) type B by reversibility test before dialysis at a concentration of 0.1 uM; conditions: read-out: Control
[10] = molecular target: T1, Amine oxidase [flavin-containing] A; test: Ex vivo inhibitory activity against rat brain monoamine oxidase (MAO) type A at a dose of 5 mg/kg administered orally at 24 hr; type: functional, organism-based; set-up: dose 5 mg/kg, route oral; conditions: po
[11] = molecular target: T2, Amine oxidase [flavin-containing] B; test: Ex vivo inhibitory activity against rat brain monoamine oxidase (MAO) type B at a dose of 5 mg/kg administered orally at 0.5 hr; type: functional, organism-based; set-up: dose 5 mg/kg, route oral; conditions: po
[12] = molecular target: T2, Amine oxidase [flavin-containing] B; test: Inhibitory activity against monoamine oxidase (MAO) type B by reversibility test before dialysis at a concentration of 0.001 uM; conditions: read-out: Control
[13] = Selectivity for the B form was estimated by the IC50(MAO A)/IC50(MAO B) ratio.
[14] = molecular target: T1, Amine oxidase [flavin-containing] A; test: (§2) Ex vivo inhibitory activity against rat brain monoamine oxidase (MAO) type A at a dose of 5 mg/kg administered orally at 1 hr; type: functional, organism-based; set-up: dose 5 mg/kg, route oral; conditions: po
[15] = molecular target: T2, Amine oxidase [flavin-containing] B; test: Inhibitory activity against monoamine oxidase (MAO) type B by reversibility test after dialysis at a concentration of 0.1 uM; conditions: read-out: Control
[16] = molecular target: T2, Amine oxidase [flavin-containing] B; test: Compound was evaluated for the Inhibition of Monoamine oxidase B
[17] = molecular target: T2, Amine oxidase [flavin-containing] B; test: (§3) Compound was evaluated for inhibitory activity against monoamine oxidase (MAO) type B by reversibility test before dialysis at a concentration of 0.1 uM; type: functional; conditions: read-out: Control
[18] = molecular target: T2, Amine oxidase [flavin-containing] B; test: (§4) Compound was evaluated for inhibitory activity against monoamine oxidase (MAO) type B by reversibility test after dialysis at a concentration of 0.1 uM; type: functional; conditions: read-out: Control
[19] = molecular target: T1, Amine oxidase [flavin-containing] A; test: as §2; type: organism-based; set-up: dose 5 mg/kg, route oral; conditions: po
[20] = molecular target: T2, Amine oxidase [flavin-containing] B; test: as §1; conditions: po
[21] = molecular target: T1, Amine oxidase [flavin-containing] A; test: Ex vivo inhibitory activity against rat brain monoamine oxidase (MAO) type A at a dose of 5 mg/kg administered orally at 8 hr; type: functional, organism-based; set-up: dose 5 mg/kg, route oral; conditions: po
[22] = molecular target: T2, Amine oxidase [flavin-containing] B; test: as §4; conditions: read-out: Control
[23] = molecular target: T2, Amine oxidase [flavin-containing] B; test: as §3; conditions: read-out: Control
[24] = molecular target: T2, Amine oxidase [flavin-containing] B; test: Compound was evaluated for inhibitory activity against monoamine oxidase (MAO) type B by reversibility test before dialysis at a concentration of 0.001 uM; type: functional; conditions: read-out: Control
[25] = molecular target: T2, Amine oxidase [flavin-containing] B; test: Compound was evaluated for inhibitory activity against monoamine oxidase (MAO) type B by reversibility test after dialysis at a concentration of 0.001 uM; conditions: read-out: Control

| SMILES | IC50 [1] [µM] | IC50 [2] [µM] | other results |
| --- | --- | --- | --- |
| N#CCCn1nnc(-c2ccc(Cl)cc2)n1 | 6.5 | 3.6 |  |
| Cc1cccc(COc2ccc(-c3nnn(CCC#N)n3)cc2)c1 | > 100 |  |  |
| Cc1ccc(COc2ccc(-c3nnn(CCO)n3)cc2)cc1 | > 100 |  |  |
| OCCn1nnc(-c2ccc(OCc3ccccc3Cl)cc2)n1 |  | 9 |  |
| COc1cccc(COc2ccc(-c3nnn(CCC#N)n3)cc2)c1 | > 100 |  |  |
| N#CCCn1nnc(-c2ccc([N+](=O)[O-])cc2)n1 | 18 | 13.4 |  |
| O=[N+]([O-])c1ccc(-c2nnn(CCO)n2)cc1 | > 100 | > 100 |  |
| N#CCCn1nnc(-c2ccc(-c3ccccc3)cc2)n1 |  | 0.84 |  |
| OCCn1nnc(-c2ccc(-c3ccccc3)cc2)n1 | 11 | 0.96 |  |
| COc1cccc(COc2ccc(-c3nnn(CCO)n3)cc2)c1 | 80 |  |  |
| OCCCCn1nnc(-c2ccc(-c3ccccc3)cc2)n1 | 13 | 9.4 |  |
| N#CCCn1nnc(-c2ccc(OCc3ccccc3)cc2)n1 |  | 0.002 | inhibition at 5 mg/kg [3]: 24%; inhibition at 5 mg/kg [4]: 0%; remaining activity at 0.001 µM [5]: 85%; inhibition at 5 mg/kg [6]: 69%; inhibition at 5 mg/kg [7]: 6%; inhibition at 5 mg/kg [8]: 74%; remaining activity at 0.1 µM [9]: 12%; inhibition at 5 mg/kg [10]: 2%; inhibition at 5 mg/kg [11]: 76%; remaining activity at 0.001 µM [12]: 65%; Selectivity [13]: 37000; inhibition at 5 mg/kg [14]: 12%; remaining activity at 0.1 µM [15]: 54% |
| N#CCCn1nc(-c2ccc(OCc3ccccc3)cc2)oc1=O |  |  | IC50 [16]: 0.0046 µM |
| Cc1ccccc1COc1ccc(-c2nnn(CCO)n2)cc1 | > 100 |  | Selectivity [13]: > 350 |
| OCCn1nnc(-c2ccc(OCc3ccccc3)cc2)n1 | 64 | 0.03 | inhibition at 5 mg/kg [4]: 4%; remaining activity at 0.1 µM [17]: 19%; inhibition at 5 mg/kg [6]: 63%; remaining activity at 0.1 µM [18]: 107%; inhibition at 5 mg/kg [7]: 5%; inhibition at 5 mg/kg [8]: 84%; inhibition at 5 mg/kg [11]: 84%; Selectivity [13]: 2100; inhibition at 5 mg/kg [14]: 4% |
| OCCn1nnc(-c2ccncc2)n1 | > 100 | > 100 |  |
| Cc1cccc(COc2ccc(-c3nnn(CCO)n3)cc2)c1 | > 100 |  |  |
| N#CCCCCCCn1nnc(-c2ccc(-c3ccccc3)cc2)n1 |  |  | Selectivity [13]: 8.5 |
| OCCCn1nnc(-c2ccc(-c3ccccc3)cc2)n1 | 4.6 | 1.36 |  |
| OCCn1nnc(-c2ccccc2)n1 | > 100 | 89 |  |
| OCCn1nnc(-c2ccc(OCc3ccc(F)cc3)cc2)n1 | > 100 |  |  |

| SMILES | IC50 [1] [µM] | IC50 [2] [µM] | other results |
| --- | --- | --- | --- |
| C#CCN(C)[C@H](C)Cc1ccccc1 [SELEGILINE] |  |  | inhibition at 5 mg/kg [3]: 81%; inhibition at 5 mg/kg [19]: 3%; inhibition at 5 mg/kg [20]: 83%; inhibition at 5 mg/kg [10]: 2%; inhibition at 5 mg/kg [21]: 5% |
| OCCn1nnc(-c2ccc(OCc3ccc(Cl)cc3)cc2)n1 |  | 0.32 |  |
| OCCn1nnc(-c2ccc(Cl)cc2)n1 | 66 | 38 |  |
| N#CCCCCn1nnc(-c2ccc(-c3ccccc3)cc2)n1 | 26 | 6 |  |
| N#CCCn1nnc(-c2ccc(OCc3ccccc3Cl)cc2)n1 | > 100 | 0.03 |  |
| COc1ccc(-c2nnn(CCO)n2)cc1 | 46 | > 100 |  |
| COc1ccc2c3c([nH]c2c1)C(C)=NCC3 [HARMALINE] | 0.012 | 150 | Selectivity [13]: 5 |
| COc1ccc(COc2ccc(-c3nnn(CCC#N)n3)cc2)cc1 | > 100 |  |  |
| N#CCCn1nnc(-c2ccc(OCc3ccccc3I)cc2)n1 | > 100 | > 270 |  |
| N#CCCn1nnc(-c2ccc(OCc3cccc(Cl)c3)cc2)n1 | > 100 | 0.1 | inhibition at 5 mg/kg [3]: 9%; inhibition at 5 mg/kg [4]: 8%; remaining activity at 0.1 µM [22]: 87%; inhibition at 5 mg/kg [6]: 63%; inhibition at 5 mg/kg [7]: 13%; inhibition at 5 mg/kg [8]: 81%; inhibition at 5 mg/kg [10]: 1%; inhibition at 5 mg/kg [11]: 72%; remaining activity at 0.1 µM [23]: 15%; Selectivity [13]: > 1000; inhibition at 5 mg/kg [14]: 18%; remaining activity at 0.001 µM [24]: 69%; remaining activity at 0.001 µM [25]: 95% |
| OCCn1nnc(-c2ccc(OCc3cccc(Cl)c3)cc2)n1 | 58 | 0.2 | inhibition at 5 mg/kg [4]: 14%; remaining activity at 0.1 µM [17]: 25%; inhibition at 5 mg/kg [6]: 55%; remaining activity at 0.1 µM [18]: 109%; inhibition at 5 mg/kg [7]: 15%; inhibition at 5 mg/kg [8]: 71%; inhibition at 5 mg/kg [11]: 69%; Selectivity [13]: 290; inhibition at 5 mg/kg [14]: 15% |
| N#CCCn1nnc(-c2ccc(OCc3ccc(Cl)cc3)cc2)n1 | > 100 | 0.08 |  |
| N#CCCn1nnc(-c2ccccc2)n1 | 54 | > 100 |  |
| COc1ccc(COc2ccc(-c3nnn(CCO)n3)cc2)cc1 | > 100 |  |  |
| Cc1ccccc1COc1ccc(-c2nnn(CCC#N)n2)cc1 | > 100 |  |  |
| N#CCCn1nc(-c2ccc(OCc3ccccc3)cc2)oc1=S |  |  | IC50 [16]: 0.0046 µM |
| COc1ccc(-c2nnn(CCC#N)n2)cc1 | 16.6 | 37 |  |
| N#CCCn1nnc(-c2ccncc2)n1 | > 100 | 30 |  |
| Cc1ccc(COc2ccc(-c3nnn(CCC#N)n3)cc2)cc1 | > 100 |  |  |
| N#CCCn1nnc(-c2ccc(OCc3ccc(F)cc3)cc2)n1 | > 100 |  |  |
| OCCn1nnc(-c2ccc(OCc3ccccc3I)cc2)n1 | > 100 | 0.35 |  |
